The text below walks through data of US8575338B2, “Pyrimidine, pyridine and triazine derivatives as maxi-K channel openers” (Mitsubishi Tanabe Pharma Corporation, priority 2008, dated 2013).

T1 sequence (Q12791 whole entry): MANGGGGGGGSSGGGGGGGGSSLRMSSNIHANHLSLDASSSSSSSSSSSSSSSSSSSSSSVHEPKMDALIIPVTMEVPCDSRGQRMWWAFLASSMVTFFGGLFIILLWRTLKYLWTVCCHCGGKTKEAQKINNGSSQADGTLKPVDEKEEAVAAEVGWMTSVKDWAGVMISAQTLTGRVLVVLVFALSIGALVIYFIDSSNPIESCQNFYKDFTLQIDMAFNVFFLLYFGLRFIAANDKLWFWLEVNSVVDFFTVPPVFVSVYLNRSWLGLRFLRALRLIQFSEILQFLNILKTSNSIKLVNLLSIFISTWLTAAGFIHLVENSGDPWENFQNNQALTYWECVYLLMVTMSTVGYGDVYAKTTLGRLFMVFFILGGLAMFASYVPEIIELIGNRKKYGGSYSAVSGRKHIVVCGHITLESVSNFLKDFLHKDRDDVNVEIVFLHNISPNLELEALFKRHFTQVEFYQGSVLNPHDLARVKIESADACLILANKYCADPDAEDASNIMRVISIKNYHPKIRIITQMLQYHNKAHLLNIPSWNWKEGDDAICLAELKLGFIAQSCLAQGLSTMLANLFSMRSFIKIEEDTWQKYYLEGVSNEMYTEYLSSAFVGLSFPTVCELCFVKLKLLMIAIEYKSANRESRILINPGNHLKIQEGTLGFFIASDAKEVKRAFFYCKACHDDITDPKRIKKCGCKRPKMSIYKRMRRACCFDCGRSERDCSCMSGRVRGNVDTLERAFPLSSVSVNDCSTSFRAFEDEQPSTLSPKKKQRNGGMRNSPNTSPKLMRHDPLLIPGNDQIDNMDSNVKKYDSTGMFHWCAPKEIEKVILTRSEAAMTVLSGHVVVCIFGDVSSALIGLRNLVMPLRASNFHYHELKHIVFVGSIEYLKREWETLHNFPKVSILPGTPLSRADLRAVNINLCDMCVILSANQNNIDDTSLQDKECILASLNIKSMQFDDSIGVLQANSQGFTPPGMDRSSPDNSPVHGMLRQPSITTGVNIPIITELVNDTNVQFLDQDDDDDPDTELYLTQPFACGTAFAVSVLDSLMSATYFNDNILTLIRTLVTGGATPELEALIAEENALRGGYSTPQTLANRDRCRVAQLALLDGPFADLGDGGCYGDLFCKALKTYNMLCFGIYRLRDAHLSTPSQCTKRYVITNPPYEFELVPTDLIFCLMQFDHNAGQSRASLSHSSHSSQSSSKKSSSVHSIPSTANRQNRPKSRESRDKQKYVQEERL
T1 sequence (Q16558 whole entry partner): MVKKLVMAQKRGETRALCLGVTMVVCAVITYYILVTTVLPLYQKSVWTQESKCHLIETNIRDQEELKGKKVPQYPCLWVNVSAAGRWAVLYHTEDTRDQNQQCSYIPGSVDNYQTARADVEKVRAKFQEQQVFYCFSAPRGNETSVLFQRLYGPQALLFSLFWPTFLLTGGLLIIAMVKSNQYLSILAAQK

The first assay has as its target T1, human BKαβ1 channels (Homo sapiens, UniProt Q12791).
T1 construct: expressed in transfected cells; host or cells: CHO cells (G418 and hygromycin selection)
The assay can be described thus: BK current in CHO cells expressing human BKαβ1 (PatchXpress whole-cell patch clamp), EC100. As to conditions: drug concentration causing 100% increase of BK current. It is filed as cell-based.
Regarding `COC[C@@H]1CCCN1c1cc(OC2(C(=O)[O-])CC2)nc(-c2cc(Cl)c(Cl)s2)n1.[Na+]` [Example 5], the EC100 was 0.78 µM.
In turn, `COC[C@@H]1CCCN1c1cc(OC(C)(C)C(=O)[O-])nc(-c2ccc(Cl)c(F)c2)n1.[Na+]` [Example 12] had an EC100 of 1.39 µM.
On the same count and under the same terms, the figure for `CCC(CC)(Oc1cc(N2CCC[C@H]2COC)nc(-c2ccc(Cl)c(F)c2)n1)C(=O)[O-].[Na+]` [Example 31] is 0.14 µM; for `O=C([O-])C1(Oc2cc(N3CCC(CCO)CC3)nc(-c3ccc(Cl)c(F)c3)n2)CCCC1.[Na+]` [Example 59] it is 0.51 µM; for `CC(C)(Oc1cc(-c2cccc3cccnc23)nc(-c2ccc(Cl)c(F)c2)n1)C(=O)[O-].[Na+]` [Example 497] it is 0.31 µM.
Still for that read-out and setting: the value for `O=C([O-])C1(Oc2cc(N3CCc4cc(F)ccc4C3)nc(-c3ccc(Cl)cc3)n2)CC1.[Na+]` [Example 1096] was 0.11 µM; that for `CN(Cc1cccc(F)c1)c1cc(OC2(C(=O)[O-])CC2)nc(-c2ccc(F)cc2)n1.[Na+]` [Example 1098] was 0.11 µM.
Molecule `COc1ccc(CN(C)c2cc(OC3(C(=O)O)CC3)nc(-c3ccc(F)cc3)n2)cc1` [Example 1100] had an EC100 of 0.38 µM.
`O=C([O-])C1(Oc2cc(N3CCc4cc(F)ccc43)nc(-c3ccc(F)cc3)n2)CC1.[Na+]` [Example 1108] gave an EC100 of 0.36 µM.
On the same count and under the same terms, the value for `O=C([O-])C1(Oc2cc(N3CCc4ccc(F)cc4C3)nc(-c3ccc(F)cc3)n2)CC1.[Na+]` [Example 1109] was 0.07 µM.
On the same count and under the same terms, the figure for `O=C([O-])C1(Oc2cc(N3CCc4ccc(Cl)cc4C3)nc(-c3ccc(F)cc3)n2)CC1.[Na+]` [Example 1111] is 0.12 µM; for `CCCOC1CCN(c2nc(-c3ccc(Cl)cc3)nc(OC3(C(=O)O)CC3)c2C)CC1` [Example 1114] it is 0.41 µM; for `COCC1CCN(c2nc(-c3ccc(Cl)cc3)nc(OC3(C(=O)O)CC3)c2C)CC1` [Example 1115] it is 1.74 µM.
Still for that read-out and setting: the figure for `CCOCC1CCN(c2nc(-c3ccc(Cl)cc3)nc(OC3(C(=O)O)CC3)c2C)CC1` [Example 1116] is 1.31 µM; for `Cc1c(OC2(C(=O)O)CC2)nc(-c2ccc(Cl)cc2)nc1N1CCC(OCC2CC2)CC1` [Example 1118] it is 0.42 µM.
`CCCCOC1CCN(c2nc(-c3ccc(Cl)cc3)nc(OC3(C(=O)[O-])CC3)c2C)CC1.[Na+]` [Example 1119] came in with an EC100 of 0.73 µM.
The same measure, in the same setting: the value for `CCOCC1CCN(c2nc(-c3ccc(F)cc3)nc(OC3(C(=O)O)CC3)c2C)CC1` [Example 1122] was 0.9 µM.
Same read-out and setting: the value for `COCCC1CCN(c2nc(-c3ccc(F)cc3)nc(OC3(C(=O)O)CC3)c2C)CC1` [Example 1123] was 0.95 µM.
Still for that read-out and setting: the figure for `CCCCOC1CCN(c2nc(-c3ccc(F)cc3)nc(OC3(C(=O)[O-])CC3)c2C)CC1.[Na+]` [Example 1125] is 0.5 µM.
Regarding `COCCCC1CCN(c2nc(-c3ccc(F)cc3)nc(OC3(C(=O)[O-])CC3)c2C)CC1.[Na+]` [Example 1126], the EC100 was 0.77 µM.
In the case of `CCCOC1CCN(c2nc(-c3ccc(Cl)cc3)nc(OC3(C(=O)[O-])CC3)c2F)CC1.[Na+]` [Example 1129], the EC100 came to 0.61 µM.
Same read-out and setting: the figure for `CCOCC1CCN(c2nc(-c3ccc(Cl)cc3)nc(OC3(C(=O)[O-])CC3)c2F)CC1.[Na+]` [Example 1131] is 0.23 µM.
Still for that read-out and setting: the value for `COCCC1CCN(c2nc(-c3ccc(Cl)cc3)nc(OC3(C(=O)[O-])CC3)c2F)CC1.[Na+]` [Example 1132] was 0.41 µM.
In turn, `CCCOCC1CCN(c2nc(-c3ccc(Cl)cc3)nc(OC3(C(=O)[O-])CC3)c2F)CC1.[Na+]` [Example 1133] had an EC100 of 1.29 µM.
`CCCOC1CCN(c2nc(OC3(C(=O)O)CC3)cc(-c3ccc(C)c(Cl)c3)n2)CC1` [Example 1148] registered an EC100 of 0.13 µM.
Still for that read-out and setting: the figure for `CCCOC1CCN(c2nc(OC3(C(=O)O)CC3)cc(-c3ccc(F)c(C(F)(F)F)c3)n2)CC1` [Example 1153] is 0.34 µM; for `CC(C)COC1CCN(c2nc(OC3(C(=O)O)CC3)cc(-c3ccc(Cl)cc3)n2)CC1` [Example 1182] it is 1.03 µM.
On the same count and under the same terms, the value for `O=C(O)C1(Oc2cc(-c3ccc(Cl)cc3)nc(N3CCc4ccc(F)cc4C3)n2)CC1` [Example 1191] was 0.02 µM.
Regarding `O=C(O)C1(Oc2cc(-c3ccc(Cl)cc3)nc(N3CCc4cc(F)ccc4C3)n2)CC1` [Example 1192], the EC100 came out at 0.04 µM.
Molecule `CCOCC1CCN(c2nc(OC3(C(=O)[O-])CC3)cc(-c3ccc(Cl)s3)n2)CC1.[Na+]` [Example 1197] registered an EC100 of 0.15 µM.
On the same count and under the same terms, the value for `O=C([O-])C1(Oc2cc(-c3ccc(Cl)s3)nc(N3CCc4ccc(F)cc4C3)n2)CC1.[Na+]` [Example 1202] was 0.2 µM; that for `O=C(O)C1(Oc2cc(-c3ccc(Cl)s3)nc(N3CCc4cc(F)ccc4C3)n2)CC1` [Example 1203] was 0.01 µM.
On to `COCCC1CCN(c2nc(OC3(C(=O)O)CC3)cc(-c3cc(C)c(Cl)s3)n2)CC1` [Example 1208], for which the EC100 is 0.96 µM.
The same measure, in the same setting: the figure for `COCCCC1CCN(c2nc(OC3(C(=O)[O-])CC3)cc(-c3cc(C)c(Cl)s3)n2)CC1.[Na+]` [Example 1215] is 0.39 µM; for `CCOC1CCN(c2nc(OC3(C(=O)O)CC3)cc(-c3cc(Cl)c(Cl)s3)n2)CC1` [Example 1216] it is 0.54 µM; for `COCC1CCN(c2nc(OC3(C(=O)O)CC3)cc(-c3cc(Cl)c(Cl)s3)n2)CC1` [Example 1217] it is 0.19 µM.
The same measure, in the same setting: the value for `COCCC1CCN(c2nc(OC3(C(=O)O)CC3)cc(-c3cc(Cl)c(Cl)s3)n2)CC1` [Example 1218] was 0.15 µM.
Turning to `O=C(O)C1(Oc2cc(OCc3ccc(F)cc3)nc(-c3ccc(Cl)cc3)n2)CC1` [Example 1281], the EC100 came to 0.12 µM.
Still for that read-out and setting: the figure for `O=C(O)C1(Oc2cc(-c3ccc(Cl)cc3)nc(OCc3ccc(F)c(F)c3)n2)CC1` [Example 1286] is 1.2 µM.

Another assay has as its system rhythmic bladder contractions. The assay can be described thus: Inhibitory effect on the rhythmic bladder contractions in anesthetized rats. Conditions: anesthetized female Sprague-Dawley rats, 10 mg/kg, i.v., 10 minutes before vs after dosing. It is filed as in vivo, rat. From the text:
Inhibitory Effect on the Rhythmic Bladder Contractions in Anesthetized Rats
Female Sprague-Dawley rats (9 to 12 weeks old weighing between 200 to 300 g) were anethethized with urethane (subcutaneously administered with a dose of 1.2 g/kg). Both ureters were cannulated to excrete urine. A cannula was inserted into the bladder via the urethra and secured with a ligature around the urethral opening and connected to a three-way stopcock. The ends were connected to a pressure transducer for measurement of bladder pressure and to a infusion pump for intravesical infusion of saline. A cannula was inserted in the femoral vein for intravenous (i.v.) drug administration. Following a over 20 minute post-surgical stabilization period and emptying of urine in the bladder, saline was infused into the bladder (50 μl/min) to evoke the micturition reflex. After the rhythmic bladder contractions had occurred, the saline infusion rate into the bladder was changed to 5 μl/min in order to maintain these contractions. Compounds were administered after stable rhythmic bladder contraction was obtained over 15 minutes. All compounds were dissolved in saline containing 10% dimethyl acetamide for intravenous administration (1 ml/kg). When iberiotoxin, a large conductance calcium-activated K channel blocker (0.15 mg/kg, i.v.) was administered for comparison purposes, it was administered 5 minutes before drug administration.
The frequencies (contractions per minute) of rhythmic bladder contractions were calculated for 10 minutes before and after drug administration. The efficacy of compounds expressed as percent of inhibition in frequency, which calculated from the following formula: (1−frequency after dosing/frequency before dosing)×100(%)
In the case of `COC[C@@H]1CCCN1c1cc(OC2(C(=O)[O-])CC2)nc(-c2cc(Cl)c(Cl)s2)n1.[Na+]` [Example 5], the “percent of inhibition in frequency of rhythmic bladder contractions” value (shortened to “percent of inhibition”) came to 78%.

The same assay, now with this note: anesthetized rats; 10 mg/kg; intravenous.
`COC[C@@H]1CCCN1c1cc(OC(C)(C)C(=O)[O-])nc(-c2ccc(Cl)c(F)c2)n1.[Na+]` [Example 12]: the “percent of inhibition” value was “A (A: inhibition(%) > 50)”.
Same read-out and setting: the entry for `CC(C)(Oc1cc(N2CCC[C@H]2CF)nc(-c2ccc(Cl)c(F)c2)n1)C(=O)[O-].[Na+]` [Example 22] is “A (A: inhibition(%) > 50)”.
Regarding `CCC(CC)(Oc1cc(N2CCC[C@H]2COC)nc(-c2ccc(Cl)c(F)c2)n1)C(=O)[O-].[Na+]` [Example 31], the “percent of inhibition” value was “B (B: 50 > inhibition(%) > 30)”.
On the same count and under the same terms, the value for `CC(C)OC1CCN(c2cc(OC3(C(=O)[O-])CC3)nc(-c3ccc(Cl)c(F)c3)n2)CC1.[Na+]` [Example 52] was “A (A: inhibition(%) > 50)”.
On the same count and under the same terms, the value for `O=C([O-])C1(Oc2cc(N3CCC(CCO)CC3)nc(-c3ccc(Cl)c(F)c3)n2)CCCC1.[Na+]` [Example 59] was “B (B: 50 > inhibition(%) > 30)”; that for `CC(C)(Oc1cc(-c2cccc3cccnc23)nc(-c2ccc(Cl)c(F)c2)n1)C(=O)[O-].[Na+]` [Example 497] was “B (B: 50 > inhibition(%) > 30)”; that for `COc1ccc(-c2cc(OC3(C(=O)[O-])CCCC3)nc(-c3ccc(Cl)c(F)c3)n2)cn1.[Na+]` [Example 567] was “B (B: 50 > inhibition(%) > 30)”.
Still for that read-out and setting: the entry for `CCCOC1CCN(c2cc(OC3(C(=O)[O-])CC3)nc(-c3ccc(C(F)(F)F)cc3)n2)CC1.[Na+]` [Example 693] is “A (A: inhibition(%) > 50)”.
